Source: PubChem BioAssay AID328 (DTP/NCI, 2004)
“And” between values parts separate entries of the source, which are not always exact repeats. Equal entries are not always repeated. Toxic doses and inconclusive results are not listed.

Test system: BDF1 mice, P388 leukemia ip, median survival T/C
Test: NCI In Vivo Anticancer Drug Screen. Data for tumor model P388 Leukemia (intraperitoneal) in B6D2F1 (BDF1) mice
Conditions: endpoint: median survival time, higher = longer survival
Procedure: The antitumor activity of compounds was measured in mice bearing transplantable tumors. Survival or tumor size were measured and the results are expressed as the measurement made in the treated group (T) divided by the measurement made in the vehicle treated control group (C). The tumor model used in this assay is P388 Leukemia (intraperitoneal) in B6D2F1 (BDF1) mice

[1] = dose: 6.25 mg/kg/injection, schedule: Q01DX009 (ip), vehicle: saline with Tween-80
[2] = dose: 12.5 mg/kg/injection, schedule: Q01DX009 (ip), vehicle: saline with Tween-80
[3] = dose: 6.25 mg/kg/injection, schedule: Q01DX009 (ip), vehicle: saline
[4] = dose: 12.5 mg/kg/injection, schedule: Q01DX009 (ip), vehicle: saline
[5] = dose: 25.0 mg/kg/injection, schedule: Q01DX009 (ip), vehicle: saline with Tween-80
[6] = dose: 50.0 mg/kg/injection, schedule: Q01DX009 (ip), vehicle: saline with Tween-80
[7] = dose: 3.13 mg/kg/injection, schedule: Q01DX009 (ip), vehicle: saline
[8] = dose: 100.0 mg/kg/injection, schedule: Q04DX003 (ip), vehicle: Klucel (hydroxypropylcellulose) (HPC)
[9] = dose: 200.0 mg/kg/injection, schedule: Q04DX003 (ip), vehicle: Klucel (hydroxypropylcellulose) (HPC)
[10] = dose: 6.25 mg/kg/injection, schedule: Q01DX009 (ip), vehicle: Klucel (hydroxypropylcellulose) (HPC)
[11] = dose: 12.5 mg/kg/injection, schedule: Q04DX003 (ip), vehicle: Klucel (hydroxypropylcellulose) (HPC)
[12] = dose: 3.13 mg/kg/injection, schedule: Q01DX009 (ip), vehicle: Klucel (hydroxypropylcellulose) (HPC)
[13] = dose: 100.0 mg/kg/injection, schedule: Q01DX009 (ip), vehicle: saline with Tween-80
[14] = dose: 200.0 mg/kg/injection, schedule: Q01DX009 (ip), vehicle: saline with Tween-80

CC(C)C1(C(=O)O)SCCCS1
T/C (dose: 50.0 mg/kg/injection, schedule: Q04DX003 (ip), vehicle: alcohol): 115 % of control
T/C (dose: 100.0 mg/kg/injection, schedule: Q04DX003 (ip), vehicle: alcohol): 115 % of control
T/C (dose: 200.0 mg/kg/injection, schedule: Q04DX003 (ip), vehicle: alcohol): 105 % of control
T/C (dose: 400.0 mg/kg/injection, schedule: Q04DX003 (ip), vehicle: alcohol): 105 % of control

CC1(C)CC(=O)C(C)(C)C(=O)C1
T/C (dose: 3.0 mg/kg/injection, schedule: Q04DX003 (ip), vehicle: saline with Tween-80): 95 % of control
T/C (dose: 6.0 mg/kg/injection, schedule: Q04DX003 (ip), vehicle: saline with Tween-80): 108 % of control
T/C [1]: 100 % of control
T/C (dose: 12.0 mg/kg/injection, schedule: Q04DX003 (ip), vehicle: saline with Tween-80): 100 % of control
T/C [2]: 104 % of control
T/C (dose: 25.0 mg/kg/injection, schedule: Q04DX003 (ip), vehicle: saline with Tween-80): 95 % of control

Cc1ccc(C)c(Nc2cc(=O)[nH]c(=O)[nH]2)c1
T/C (dose: 100.0 mg/kg/injection, schedule: Q01DX001 (ip), vehicle: Klucel (hydroxypropylcellulose) (HPC)): 98 % of control
T/C (dose: 200.0 mg/kg/injection, schedule: Q01DX001 (ip), vehicle: Klucel (hydroxypropylcellulose) (HPC)): 103 % of control

CCCB(O)O
T/C (dose: 100.0 mg/kg/injection, schedule: Q01DX001 (ip), vehicle: saline): 100 % of control
T/C (dose: 200.0 mg/kg/injection, schedule: Q01DX001 (ip), vehicle: saline): 113 % of control
T/C (dose: 400.0 mg/kg/injection, schedule: Q01DX001 (ip), vehicle: saline): 95 % of control

O=C1C=CC(=O)N1CN1CCOCC1
T/C (dose: 3.12 mg/kg/injection, schedule: Q01DX009 (ip), vehicle: saline): 120 % of control
T/C [3]: 104 % of control
T/C [4]: 116 % of control
T/C (dose: 18.75 mg/kg/injection, schedule: Q01DX009 (ip), vehicle: saline): 111 % of control

O=c1[nH]ncc2[nH]cnc12
T/C [1]: 98 % of control
T/C [2]: 107 % of control
T/C [5]: 91 % of control
T/C [6]: 104 % of control

Clc1c(Cl)c2c(Cl)c(Cl)c1C[P+](c1ccccc1)(c1ccccc1)CC[P+](c1ccccc1)(c1ccccc1)Cc1c(Cl)c(Cl)c(c(Cl)c1Cl)C[P+](c1ccccc1)(c1ccccc1)CC[P+](c1ccccc1)(c1ccccc1)C2
T/C (dose: 1.56 mg/kg/injection, schedule: Q01DX009 (ip), vehicle: water): 92 % of control
T/C (dose: 3.13 mg/kg/injection, schedule: Q01DX009 (ip), vehicle: water): 113 % of control
T/C (dose: 6.25 mg/kg/injection, schedule: Q01DX009 (ip), vehicle: water): 106 % of control

CCCCCCCCC[N+]12CC[N+](CCCCCCCCC)(CC1)CC2
T/C [7]: 101 % of control
T/C [3]: 97 % of control
T/C [4]: 98 % of control

Oc1c(Cl)cc(Cl)c2cccnc12
T/C (dose: 12.5 mg/kg/injection, schedule: Q01DX010 (ip), vehicle: carboxymethylcellulose (CMC)): 104 % of control
T/C (dose: 25.0 mg/kg/injection, schedule: Q01DX010 (ip), vehicle: carboxymethylcellulose (CMC)): 104 % of control
T/C (dose: 50.0 mg/kg/injection, schedule: Q01DX010 (ip), vehicle: carboxymethylcellulose (CMC)): 104 % of control

Nc1ncccc1C1CCCS1 (stereo unspecified)
T/C (dose: 50.0 mg/kg/injection, schedule: Q04DX002 (ip), vehicle: saline with Tween-80): 104 % of control
T/C (dose: 100.0 mg/kg/injection, schedule: Q04DX002 (ip), vehicle: saline with Tween-80): 98 % of control
T/C (dose: 200.0 mg/kg/injection, schedule: Q04DX002 (ip), vehicle: saline with Tween-80): 91 % of control

CN(C)CCCNC(=O)Nc1ccccc1
T/C [8]: 95 % of control
T/C [9]: 104 % of control

Cc1cc(C)c(CCO)c(C)c1
T/C (dose: 0.37 mg/kg/injection, schedule: Q01DX009 (ip), vehicle: DMSO): 113 % of control
T/C (dose: 0.75 mg/kg/injection, schedule: Q01DX009 (ip), vehicle: DMSO): 113 % of control
T/C (dose: 1.5 mg/kg/injection, schedule: Q01DX009 (ip), vehicle: DMSO): 95 % of control
T/C (dose: 3.0 mg/kg/injection, schedule: Q01DX009 (ip), vehicle: DMSO): 88 % of control and 109 % of control
T/C (dose: 12.0 mg/kg/injection, schedule: Q01DX009 (ip), vehicle: DMSO): 92 % of control
T/C (dose: 25.0 mg/kg/injection, schedule: Q04DX003 (ip), vehicle: DMSO): 88 % of control
T/C (dose: 50.0 mg/kg/injection, schedule: Q04DX003 (ip), vehicle: DMSO): 88 % of control

Oc1ccccc1C=NCCN1CC1.Oc1ccccc1C=NCCN1CC1.[Ni+2]
T/C [10]: 101 % of control
T/C (dose: 12.5 mg/kg/injection, schedule: Q01DX009 (ip), vehicle: Klucel (hydroxypropylcellulose) (HPC)): 101 % of control
T/C [11]: 98 % of control
T/C (dose: 25.0 mg/kg/injection, schedule: Q04DX003 (ip), vehicle: saline sonified): 115 % of control
T/C (dose: 50.0 mg/kg/injection, schedule: Q04DX003 (ip), vehicle: Klucel (hydroxypropylcellulose) (HPC)): 122 % of control

O=C(NCCCl)NC1C(O)OC(CO)C(O)C1O (stereo unspecified)
T/C (dose: 25.0 mg/kg/injection, schedule: Q01DX009 (ip), vehicle: water): 109 % of control
T/C (dose: 50.0 mg/kg/injection, schedule: Q01DX009 (ip), vehicle: water): 120 % of control
T/C (dose: 50.0 mg/kg/injection, schedule: Q04DX003 (ip), vehicle: water): 101 % of control
T/C (dose: 100.0 mg/kg/injection, schedule: Q01DX009 (ip), vehicle: water): 92 % of control
T/C (dose: 100.0 mg/kg/injection, schedule: Q04DX003 (ip), vehicle: water): 86 % of control
T/C (dose: 200.0 mg/kg/injection, schedule: Q01DX009 (ip), vehicle: water): 91 % of control
T/C (dose: 200.0 mg/kg/injection, schedule: Q04DX003 (ip), vehicle: water): 109 % of control
T/C (dose: 400.0 mg/kg/injection, schedule: Q01DX009 (ip), vehicle: water): 94 % of control
T/C (dose: 400.0 mg/kg/injection, schedule: Q04DX003 (ip), vehicle: water): 101 % of control

c1ccc(C[P+](c2ccccc2)(c2ccccc2)c2ccccc2)cc1
T/C [12]: 104 % of control
T/C (dose: 3.13 mg/kg/injection, schedule: Q04DX003 (ip), vehicle: Klucel (hydroxypropylcellulose) (HPC)): 104 % of control
T/C [10]: 118 % of control
T/C (dose: 6.25 mg/kg/injection, schedule: Q04DX003 (ip), vehicle: Klucel (hydroxypropylcellulose) (HPC)): 113 % of control
T/C [11]: 118 % of control

COc1ccc(S(=O)(=O)Nc2c([N+](=O)[O-])cc([N+](=O)[O-])c3ccccc23)cc1
T/C [5]: 102 % of control
T/C [6]: 100 % of control

CNc1ccc([N+](=O)[O-])cc1C(=O)OC
T/C [13]: 104 % of control
T/C [14]: 96 % of control

CCOC(=O)C(=Cc1ccc(C=C(C(=O)OCC)C(=O)OCC)cc1)C(=O)OCC
T/C (dose: 50.0 mg/kg/injection, schedule: Q01DX009 (ip), vehicle: Klucel (hydroxypropylcellulose) (HPC)): 110 % of control
T/C (dose: 100.0 mg/kg/injection, schedule: Q01DX009 (ip), vehicle: Klucel (hydroxypropylcellulose) (HPC)): 105 % of control
T/C [8]: 91 % of control
T/C (dose: 200.0 mg/kg/injection, schedule: Q01DX009 (ip), vehicle: Klucel (hydroxypropylcellulose) (HPC)): 95 % of control
T/C [9]: 91 % of control

COc1cc2c3cc1Oc1c(OC)c(OC)cc4c1C(Cc1ccc(O)c(c1)-c1cc(ccc1OC)CC3N(C)CC2)N(C)CC4 (stereo unspecified)
T/C (dose: 1.56 mg/kg/injection, schedule: Q01DX009 (ip), vehicle: Klucel (hydroxypropylcellulose) (HPC)): 91 % of control
T/C [12]: 87 % of control
T/C [10]: 87 % of control
T/C (dose: 50.0 mg/kg/injection, schedule: Q01DX009 (ip), vehicle: carboxymethylcellulose (CMC)): 88 % of control

CC(=O)OC1C(CO)OC2C1Oc1nc(=N)c(F)cn12 (stereo unspecified)
T/C (dose: 1.56 mg/kg/injection, schedule: Q01DX009 (ip), vehicle: saline): 176 % of control
T/C [7]: 92 % of control and 102 % of control

COC(=O)CCC(=O)c1ccc(OC)c(OC)c1
T/C [6]: 115 % of control
T/C [13]: 99 % of control
T/C [14]: 99 % of control
